Measured values from publication PMC9000610, “Computational Analysis and Biological Activities of Oxyresveratrol Analogues, the Putative Cyclooxygenase-2 Inhibitors” (Molecules, 2022).

Experiments:
human COX-2 = biological target: T1, human COX-2 (Homo sapiens, UniProt P35354); experiment: Human COX-2 inhibitor screening assay kit (Cayman); assay type: biochemical; conditions: mean ± standard deviation of three replicates; read-out: COX-2 Inhibition IC50
T1 construct: purchased Cayman Chemicals USA Item no; 701080
T1 sequence (P35354 18-604): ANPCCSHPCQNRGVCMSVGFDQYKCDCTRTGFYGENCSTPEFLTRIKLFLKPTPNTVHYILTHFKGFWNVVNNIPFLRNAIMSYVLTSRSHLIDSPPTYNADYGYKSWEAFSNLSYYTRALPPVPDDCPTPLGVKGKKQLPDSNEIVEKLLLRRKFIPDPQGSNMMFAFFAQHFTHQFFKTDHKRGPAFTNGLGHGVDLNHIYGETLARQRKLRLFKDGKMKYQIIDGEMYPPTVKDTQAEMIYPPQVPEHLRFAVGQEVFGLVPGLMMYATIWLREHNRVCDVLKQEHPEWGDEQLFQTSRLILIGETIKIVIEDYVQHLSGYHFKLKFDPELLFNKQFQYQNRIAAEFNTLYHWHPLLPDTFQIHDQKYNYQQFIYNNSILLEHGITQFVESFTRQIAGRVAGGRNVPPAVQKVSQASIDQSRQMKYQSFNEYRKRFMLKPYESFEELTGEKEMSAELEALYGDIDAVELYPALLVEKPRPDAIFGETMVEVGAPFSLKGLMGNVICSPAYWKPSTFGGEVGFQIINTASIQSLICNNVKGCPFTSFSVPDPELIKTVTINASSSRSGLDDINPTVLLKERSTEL
Description: COX-2 enzyme and tested compounds at various concentrations were prepared in the reaction buffer (0.1 M Tris-HCl, pH 8.0, containing 5 mM EDTA and 2 mM phenol) containing heme. […] The quenched reactions were incubated at room temperature for 5 min to produce prostaglandin F2α. Dilutions were made with the ELISA buffer and measured by using a PGE2 ELISA kit according to the manufacturer’s instruction.

in vitro = assay type: cell-based, human; conditions: human
Description: (§1) The effect of oxyresveratrol and its derivatives on the viability of normal human fibroblasts (MRC-5 cells) were determined by MTT assay. MRC-5 cells were diluted to 2 × 10^5 cells/mL with a complete medium. The cells (100 µL) were seeded in the wells of the sterile 96-well cell culture plate. After incubation at 37 °C in CO2 for 24 h, the cells were treated with different concentrations of sample compounds (100 µL) and doxorubicin as a positive control (100 µL). After incubation for 48 h, MTT solution (20 µL of 5 mg/mL) was added to each well and incubated for 3 h. After that, the complete medium was removed. Then, the cells were lysed with DMSO (100 µL). The yellow MTT dye was reduced by succinic dehydrogenase in the mitochondria of viable cells to purple formazan crystals. After that, absorbance (OD) was measured by a microplate reader at 570 nm. The percentage of cytotoxicity was determined with Equation (1) below. (1) Cell viability(%)=OD of treated cells/OD of control cells×100^

MRC-5 cells = experiment: in vitro; assay type: cell-based, human
Description: as §1

SMILES	IC50 (human COX-2) [µM]	CC50 at 48 h (in vitro) [µM]	cytotoxicity to normal cell lines (in words) (MRC-5 cells)	melting point [°C]
COc1cc(C=Cc2ccc(OC)cc2OC)cc(OC)c1 [Compound 2, 2,3′,4,5′-tetramethoxystilbene]	25 ± 2.34	118 ± 2.69		
CC(=O)Oc1cc(OC(C)=O)cc(C(F)C(F)c2ccc(OC(C)=O)cc2OC(C)=O)c1 (stereo not drawn) [Compound 9]		11.7 ± 1.35		
Oc1cc(O)cc(CCc2ccc(O)cc2O)c1 [Compound 4, 2,3′,4,5′-tetrahydroxybibenzyl]	11.5 ± 1.54	106 ± 3.86	very low cytotoxicity	
COc1cc(CCc2ccc(OC)cc2OC)cc(OC)c1 [Compound 5, 2,3′,4,5′-tetramethoxybibenzyl]	18.1 ± 2.07	130 ± 3.04		44.7 to 46.8
CC(=O)Oc1cc(C=Cc2ccc(OC(C)=O)cc2OC(C)=O)cc(OC(C)=O)c1 [Compound 3, 2,3′,4,5′-tetraacetoxystilbene]	23 ± 2.02	77.7 ± 3.07		
CC(=O)Oc1cc(CCc2ccc(OC(C)=O)cc2OC(C)=O)cc(OC(C)=O)c1 [Compound 6, 2,3′,4,5′-tetraacetoxybibenzyl]	19 ± 2.01	121 ± 2.37		72.3 to 73.3
COc1cc(OC)cc(C(F)C(OC)c2ccc(OC)cc2OC)c1 (stereo not drawn) [Compound 8]		53.04 ± 0.22		
Oc1cc(O)cc(/C=C/c2ccc(O)cc2O)c1 [Compound 1, trans-2,3′,4,5′-tetrahydroxystilbene]	14.5 ± 2.04	57.5 ± 2.34		
COc1cccc2c1C(=O)c1c(O)c3c(c(O)c1C2=O)C[C@@](O)(C(=O)CO)C[C@@H]3O[C@H]1C[C@H](N)[C@H](O)[C@H](C)O1 [doxorubicin, reference compound]		> 100		
